Where “and” joins values, the source holds several entries; their conditions need not be identical. Equal entries are not always repeated. Where two headings read alike, the source gives them in different places.
Tests used:
CHO cells = format: cell-based; settings: for % new chol / ug cholest. / ug new chl / 372/368: 5 uM, CHO cells; for % new chol / ug cholest. / ug new chl: duplicate samples; for 372/368: ion ratio m/z 372 to m/z 368, duplicate samples
SLOS fibroblasts = format: cell-based, human
Description: The effect of 27-hydroxy-7-dehydrocholesterol on cholesterol synthesis was studied in CHO cells (Table 2). SLOS fibroblasts were plated at a density of 375,000 cells in a T-25 flask in DMEM containing 10% fetal bovine serum. After 24 hours, the media was changed to McCoy's 5A containing 7.5% lipoprotein deficient serum and 25% D2O. To these cultures, either 5 μM of 27-hydroxycholesterol or 27-hydroxy-7-dehydrocholesterol in hydroxypropyl-β-cyclodextrin were added. Control cultures had only the vehicle added. Media was changed on day 3 and cell pellets were obtained on day 5. Newly synthesized 7-DHC was determined by a combination of GLC-FID and GLC-MS. At a medium concentration of 5 μM 27-hydroxy-7-dehydrocholesterol, the synthesis rate of 7-DHC fell to less than 2 ng/day/T-25 flask in each cell line. […] In untreated cultures, the rates of 7-DHC synthesis were 326±8 and 1414±88 ng/day/T-25 flask (mean±SD) for A2SLO and 4350SLO respectively.

SMILES | % new chol (CHO cells; listed as 27OH) | ug cholest. (CHO cells; listed as 27OH) | ug new chl (CHO cells; listed as 27OH) | 372/368 (CHO cells; listed as 27OH) | % new chol (CHO cells) | ug cholest. (CHO cells) | ug new chl (CHO cells) | 372/368 (CHO cells) | inhibition of cholesterol synthesis compared with an equimolar amount of 27-hydroxycholesterol (CHO cells; 5 μM, cell culture) | inhibition of cholesterol synthesis (in words) (CHO cells; cell culture assays) | metabolism to 27-hydroxycholesterol in SLOS fibroblasts (SLOS fibroblasts) | synthesis rate of 7-DHC (SLOS fibroblasts; medium concentration 5 μM, each cell line (A2SLO and 4350SLO), untreated 326±8 and 1414±88)
CC(CO)CCC[C@@H](C)[C@H]1CC[C@H]2[C@@H]3CC=C4C[C@@H](O)CC[C@]4(C)[C@H]3CC[C@]12C (stereo partly drawn) [27-hydroxycholesterol, cholest-5-ene-3 β, 27-diol, reference compound] | 4.4% and 3.6% | 29.9 µg and 33.1 µg | 1.3 µg and 1.2 µg | 0.013 and 0.011 | – | – | – | – | – | – | – | –
CC(CO)CCC[C@@H](C)[C@H]1CC[C@H]2C3=CC=C4C[C@@H](O)CC[C@]4(C)[C@H]3CC[C@]12C (stereo partly drawn) [27-hydroxy-7-dehydrocholesterol, cholesta-5,7-diene-3β-27 diol] | – | – | – | – | 2.6% and 2.9% | 29.5 µg and 32.6 µg | 0.78 µg and 0.95 µg | 0.0079 and 0.0087 | slightly greater | potent inhibitor of cholesterol synthesis | did not metabolize | less than 2 ng/day/T-25 flask
